Measured values as given in patent publication US20020198215A1 (priority 2000, published 2002).

What was measured:
[1] = cited from earlier work
[2] = after oral administration; cited from earlier work
[3] = Calculation of the release rate for a terazosin transdermal delivery system from literature pharmacokinetic data; conditions: product of steady state concentration and clearance rate
Description: Therefore, an equal dose is required to be delivered transdermally. […] The largest desirable surface area for a transdermal patch is about 40 cm^2. […] To account for drug elimination, further pharmacokinetic data and physiological data was required. […] The largest desirable surface area for a transdermal patch is about 40 cm^2. […] One of skill would expect a different input rate or flux to maintain a steady state concentration in consideration of the rate of loss of drug in the plasma due to elimination. A confirmatory calculation for flux requires further pharmacokinetic parameters. […] The largest desirable surface area for a transdermal patch is about 40 cm^2. […], yields a release rate of […] of transdermal patch surface area.

plasma proteins = conditions: cited from earlier work
[4] = terazosin therapy; cited from earlier work

COc1cc2nc(N3CCN(C(=O)C4CCCO4)CC3)nc(N)c2cc1OC (stereo not drawn) [terazosin, Terazosin]
removed during hemodialysis ([1]; hemodialysis): 10% | effect of impaired renal function on elimination ([1]; impaired renal function): no significant effect | dose excreted renally as unchanged drug ([1]; in vivo): 10% | physiological clearance rate ([1]; in vivo): 4,800 ml/hour | plasma concentration at steady state ([1]; in vivo): 0.045 µg/mL | first-pass effect ([1]; oral administration): minimal first-pass effect | time of peak plasma levels after administration ([1]; oral administration): about 1 hour | bioavailability ([1]; oral dose, gastrointestinal absorption): 90% | effect of food on terazosin bioavailability ([1]; oral, presence of food): no significant effect | delay of time to peak concentrations by food ([1]; oral, with food): about 1 hour | plasma drug concentrations versus dosage ([1]; treatments from 1 to 5 days, dosages up to 40 mg): increased proportionately | time until antihypertensive effects are seen [2]: ≤ 15 min | dosing rate [3]: 216 µg/h | bound to plasma proteins (plasma proteins): 90-94% | adverse effect: asthenia (weakness, tiredness, and fatigue) [4]: 11% | adverse effect: dizziness [4]: 19% | adverse effect: drowsiness [4]: 5% | adverse effect: headache [4]: 16% | adverse effect: nasal congestion [4]: 6% | adverse effect: nausea/vomiting [4]: 4.4% | adverse effect: peripheral edema [4]: 6%
